Key:
[1] = tested on: IL-2 production from PMA and αCD3 antibody stimulated human PBMCs; type: cell-based
[2] = tested on: IFNγ production from PMA and αCD3 antibody stimulated human PBMCs; type: cell-based
[3] = tested on: IFNγ production from αCD3 and αCD28 antibody stimulated human PBMCs; type: cell-based
[4] = tested on: CD40L on CD4+ T cells in human whole blood; type: cell-based
[5] = tested on: IL-2R on CD4+ T cells in human whole blood; type: cell-based
[6] = tested on: T cell proliferation in human PBMCs; assay: T cell proliferation (3H-thymidine incorporation) in anti-CD3/anti-CD28 stimulated human PBMCs; type: cell-based; conditions: two normal donors
Source text: Inhibition of T cell proliferation following anti-CD3 and anti-CD28 antibody stimulation of PBMCs. PBMC's were previously isolated from normal human donor Leukophoresis packs, purified by density gradient centrifugation (Ficoll Hypaque), cryopreserved in CPZ Cryopreservation Medium Complete (INCELL, MCPZF-100 plus 10% DMSO final). PBMC's were thawed (95% viability), washed, and seeded at 2×10^5 cells per well in culture medium (RPMI medium 1640; GIBCO) supplemented with 10% fetal calf serum, 100 U/ml penicillin, […] streptomycin, 2 mM L-glutamine, 100 μM non-essential amino acids, and 20 μM 2-ME) in 96-well flat-bottom tissue culture plates. Cells were pre-incubated with either anti-human CD32 (FcyRII) blocking antibody (per manufacturers instructions EASY SEP Human Biotin Selection Kit #18553, StemCell Technologies Vancouver, BC) or Fc-L10-ShK (100 nM-0.001 nM final) for 45 min. Fc-L10-ShK (100 nM-0.001 nM final) was then added to the cells containing anti-human CD32 blocking antibody while medium was added to the cells containing Fc-L10-ShK. Both sets were incubated for an additional 45 min before stimulating for 48 hr with aCD3/aCD28 (0.2 ng/ml and 100 ng/ml, respectively). Final assay volume was 200 ul. […] Cells were then harvested onto glass fiber filters and radioactivity was measured in a B-scintillation counter.

[7] = tested on: IL-2 production from αCD3 and αCD28 antibody stimulated human PBMCs; type: cell-based
[8] = biological target: HEK 293 cells overexpressing human Kv1.3 (Homo sapiens, UniProt P22001); assay: Immunohistochemistry of binding to HEK 293 cells overexpressing human Kv1.3; conditions: 5 μg/ml peptibody
Chain of HEK 293 cells overexpressing human Kv1.3 (P22001 whole entry): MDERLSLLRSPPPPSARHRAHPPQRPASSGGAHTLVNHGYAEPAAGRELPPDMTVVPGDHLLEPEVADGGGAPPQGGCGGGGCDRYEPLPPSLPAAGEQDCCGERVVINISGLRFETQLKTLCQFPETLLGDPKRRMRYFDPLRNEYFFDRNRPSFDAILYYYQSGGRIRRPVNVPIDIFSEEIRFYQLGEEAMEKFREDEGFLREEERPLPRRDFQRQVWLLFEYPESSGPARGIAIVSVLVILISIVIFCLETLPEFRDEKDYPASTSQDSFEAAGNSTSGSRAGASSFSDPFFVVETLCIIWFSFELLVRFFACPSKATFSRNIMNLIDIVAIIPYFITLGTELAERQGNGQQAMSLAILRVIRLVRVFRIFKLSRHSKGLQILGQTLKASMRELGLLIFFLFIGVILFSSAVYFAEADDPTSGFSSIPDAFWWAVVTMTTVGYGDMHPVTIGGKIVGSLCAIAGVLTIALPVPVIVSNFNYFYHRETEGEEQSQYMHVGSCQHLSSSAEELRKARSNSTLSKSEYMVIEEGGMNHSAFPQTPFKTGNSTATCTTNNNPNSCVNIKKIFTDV
Protocol: Immunohistochemistry analysis of Fc-L10-ShK[1-35] binding to HEK 293 cells overexpressing human Kv1.3. HEK 293 cells overexpressing human Kv1.3 (HEK Kv1.3) were obtained from BioFocus plc (Cambridge, UK) and maintained per manufacturer's recommendation. The parental HEK 293 cell line was used as a control. Cells were plated on Poly-D-Lysine 24 well plates (#35-4414; Becton-Dickinson, Bedford, Mass.) and allowed to grow to approximately 70% confluence. HEK KV1.3 were plated at 0.5×10e5 cells/well in 1 ml/well of medium. HEK 293 cells were plated at a density of 1.5×10e5 cells/well in 1 ml/well of medium. Before staining, cells were fixed with formalin (Sigma HT50-1-1 Formalin solution, diluted 1:1 with PBS/0.5% BSA before use) by removing cell growth medium, adding 0.2 ml/well formalin solution and incubating at room temperature for ten minutes. Cells were stained by incubating with 0.2 ml/well of 5 μg/ml Fc-L10-ShK[1-35] in PBS/BSA for 30′ at room temperature. Fc-L10-ShK[1-35] was aspirated and then the cells were washed one time with PBS/0.5% BSA. Detection antibody (Goat F(ab)2 anti-human IgG-phycoerythrin; Southern Biotech Associates, Birmingham, Ala.) was added to the wells at 5 μg/ml in PBS/0.5% BSA and incubated for 30′ at room temperature. Wash cells once with PBS/0.5% BSA and examine using confocal microscopy (LSM 510 Meta Confocal Microscope; Carl Zeiss AG, Germany). […]

[9] = biological target: fixed HEK 293 cells stably transfected with human Kv1.3 (Homo sapiens, UniProt P22001); assay: Whole cell immunoassay (ELISA) on fixed HEK 293 cells overexpressing Kv1.3; type: binding
Chain of fixed HEK 293 cells stably transfected with human Kv1.3 (P22001 whole entry): as above
Protocol: Our peptibody reagent can be a useful and convenient tool for monitoring Kv1.3 channel expression in patients and have utility in diagnostic applications. The procedure shown in FIG. 34A and FIG. 34B follows.
FIG. 34A. A whole cell immunoassay was performed to show binding of intact Fc-L10-ShK[1-35] to Kv1.3 transfected HEK 293 cells (BioFocus plc, Cambridge, UK). Parent HEK 293 cells or HEK Kv1.3 cells were plated at 3×10e4 cells/well in poly-D-Lysine coated ninety-six well plates (#35-4461; Becton-Dickinson, Bedford, Mass.). Cells were fixed with formalin (Sigma HT50-1-1 Formalin solution, diluted 1:1 with PBS/0.5% BSA before use) by removing cell growth medium, adding 0.2 ml/well formalin solution and incubating at room temperature for 25 minutes and then washing one time with 100 μl/well of PBS/0.5% BSA. Wells were blocked by addition of 0.3 ml/well of BSA blocker (50-61-00; KPL 10% BSA Diluent/Blocking Solution, diluted 1:1 with PBS; KPL, Gaithersburg, Md.) followed by incubation at room temperature, with shaking, for 3 hr. Plates were washed 2 times with 1×KP Wash Buffer (50-63-00; KPL). […] Absorbance was read at 450 nm on a Molecular Devices SpectroMax 340 (Sunnyvale, Calif.).
FIG. 34B. […] Absorbances were read at 405 nm after stopping reactions by addition of 0.1 ml/well of 1% SDS.

[10] = rat, in vivo, iv
[11] = tested on: adoptive transfer EAE model of multiple sclerosis; conditions: rat, in vivo, sc
[12] = tested on: thapsigargin-induced IFN-g production in human whole blood; type: cell-based
[13] = tested on: thapsigargin-induced IL-2 production in human whole blood

With “Fc-L10-ShK[1-35]: Fc region of human IgG1 fused in-frame to L10 linker and a monomer of Kv1.3 inhibitor peptide ShK[1-35]” the “inhibition of IL-2 production” value [1] was “complete inhibition”, the “inhibition of IFNγ production” value [2] was “complete inhibition” and the “inhibition of IFNg production” value [3] was “nearly complete inhibition”. The “thapsigargin-induced upregulation of CD40L on T cells” value [4] was “suppressed”, the “thapsigargin-induced upregulation of the IL-2R on T cells” value [5] was “suppressed” and the “inhibition of T cell proliferation” value [6] was “potently inhibits proliferation of T cells in a dose-dependent manner”. For the same compound, the “inhibition of IL-2 production” value [7] was “nearly complete inhibition”, the “staining of cells” value [8] was “stains HEK 293 cells stably transfected with human Kv1.3” and the “enzyme-immunoassay response on fixed Kv1.3 transfected cells” value [9] was “dose-dependent increase in response”.
In the case of `CC[C@H](C)[C@@H]1NC(=O)[C@@H](NC(=O)[C@H](CO)NC(=O)[C@@H](N)CCCNC(=N)N)CSSC[C@@H](C(=O)O)NC(=O)[C@H]([C@@H](C)O)NC(=O)CNC(=O)[C@@H]2CSSC[C@@H]3NC(=O)[C@H](CCC(N)=O)NC(=O)[C@H](Cc4ccccc4)NC(=O)[C@H](C)NC(=O)[C@H]([C@@H](C)O)NC(=O)[C@H](CSSC[C@H](NC(=O)[C@H](Cc4ccccc4)NC(=O)[C@H](CO)NC(=O)[C@H](CC(C)C)NC(=O)[C@H](CCCNC(=N)N)NC(=O)[C@H](Cc4ccc(O)cc4)NC(=O)[C@H](CCCCN)NC(=O)[C@H](CCSC)NC(=O)[C@H](CO)NC(=O)[C@H](Cc4cnc[nH]4)NC(=O)[C@H](CCCCN)NC3=O)C(=O)N[C@@H](CCCNC(=N)N)C(=O)N[C@@H](CCCCN)C(=O)N[C@@H]([C@@H](C)O)C(=O)N2)NC(=O)[C@H](CCCNC(=N)N)NC(=O)[C@H](CO)NC(=O)[C@H](CCCCN)NC(=O)[C@@H]2CCCN2C(=O)[C@H]([C@@H](C)CC)NC(=O)[C@H]([C@@H](C)O)NC(=O)[C@H](CC(=O)O)NC1=O` [ShK, reference compound], the “inhibition of IL-2 production” value [1] is reported as “partial inhibition”, the “duration of significant suppression of Kv1.3 current (<70 POC) by serum” value [10] is reported as ≤ 1 h and the “inhibition of IFNγ production” value [2] is reported as “partial inhibition”. For the same compound, the “inhibition of IFNg production” value [3] was “partial inhibition”, the “body weight lost (average)” value [11] was 30 g and the “disease severity and survival” value [11] was “developed severe disease and died”. The onset of disease [11] was 4 days, the “thapsigargin-induced IFN-g production in human whole blood” value [12] was “suppressed” and the “thapsigargin-induced upregulation of CD40L on T cells” value [4] was “suppressed”. The “thapsigargin-induced upregulation of the IL-2R on T cells” value [5] was “suppressed”, the “inhibition of IL-2 production” value [7] was “partial inhibition” and the “thapsigargin-induced IL-2 production in human whole blood” value [13] was “suppressed”.
